Assay [1] relates to Trypanosoma brucei brucei. Put plainly: Trypanocidal activity against Trypanosoma brucei brucei GUTat3.1 assessed as parasite growth inhibition incubated for 3 days by Celltiter-Glo luminescence assay. The settings on record: GUTat3.1, 72 h. Format: functional, organism-based. (In general: Cellular ATP, detected with luciferase, serves as a proxy for viable cell number.)
Assay [2] concerns Trypanosoma congolense. Kind of assay: Trypanocidal activity against Trypanosoma congolense IL3000 assessed as parasite growth inhibition incubated for 3 days by Celltiter-Glo luminescence assay. Conditions: IL3000, 72 h.
Assay [3] has as its system Trypanosoma brucei rhodesiense. Kind of assay: Trypanocidal activity against Trypanosoma brucei rhodesiense IL1501 assessed as parasite growth inhibition incubated for 3 days by Celltiter-Glo luminescence assay. It counts as functional, organism-based. Conditions: IL1501, 72 h.
The subject of assay [4] is Trypanosoma brucei rhodesiense. Put plainly: Trypanocidal activity against Trypanosoma brucei rhodesiense assessed as parasite growth inhibition incubated for 3 days by Celltiter-Glo luminescence assay. It counts as functional, organism-based. The settings on record: 72 h.
The subject of assay [5] is Trypanosoma evansi. Kind of assay: Trypanocidal activity against Trypanosoma evansi assessed as parasite growth inhibition incubated for 3 days by Celltiter-Glo luminescence assay. Format: functional, organism-based. The settings on record: 72 h.
Assay [6] has as its system Trypanosoma brucei gambiense. Put plainly: Trypanocidal activity against Trypanosoma brucei gambiense IL1922 assessed as parasite growth inhibition incubated for 3 days by Celltiter-Glo luminescence assay. It counts as functional, organism-based. The settings on record: IL1922, 72 h.
Assay [7] concerns Trypanosoma brucei brucei. Put plainly: Trypanocidal activity against Trypanosoma brucei brucei GUTat3.1 assessed as parasite growth inhibition at 50 ug/ml incubated for 3 days by Celltiter-Glo luminescence assay. Format: functional. The arrangement: scale not given: the % may be the effect or the level left. Conditions: dose 50 µg/ml; time 3 day.
In assay [8] the test system is Trypanosoma brucei rhodesiense. Kind of assay: Trypanocidal activity against Trypanosoma brucei rhodesiense IL1501 assessed as parasite growth inhibition at 50 ug/ml incubated for 3 days by Celltiter-Glo luminescence assay. The settings on record: dose 50 µg/ml; time 3 day. It counts as functional. Also noted: scale not given: the % may be the effect or the level left.

Assay [9] relates to Trypanosoma brucei gambiense. Put plainly: Trypanocidal activity against Trypanosoma brucei gambiense IL1922 assessed as parasite growth inhibition at 50 ug/ml incubated for 3 days by Celltiter-Glo luminescence assay. Format: functional. The arrangement: scale not given: the % may be the effect or the level left. Conditions: dose 50 µg/ml; time 3 day.
Assay [10] concerns Trypanosoma brucei rhodesiense. Put plainly: Trypanocidal activity against Trypanosoma brucei rhodesiense assessed as parasite growth inhibition at 50 ug/ml incubated for 3 days by Celltiter-Glo luminescence assay. The settings on record: dose 50 µg/ml; time 3 day. Also noted: scale not given: the % may be the effect or the level left. It counts as functional.
Assay [11] deals with Trypanosoma evansi. Put plainly: Trypanocidal activity against Trypanosoma evansi assessed as parasite growth inhibition at 50 ug/ml incubated for 3 days by Celltiter-Glo luminescence assay. Format: functional. The arrangement: scale not given: the % may be the effect or the level left. Conditions: dose 50 µg/ml; time 3 day.
Assay [12] deals with Trypanosoma congolense. Put plainly: Trypanocidal activity against Trypanosoma congolense IL3000 assessed as parasite growth inhibition at 50 ug/ml incubated for 3 days by Celltiter-Glo luminescence assay. The arrangement: scale not given: the % may be the effect or the level left. Conditions: dose 50 µg/ml; time 3 day.

Our source for the IC50 and Activity values is ChEMBL document CHEMBL5042509, “Benzophenone Glucosides and B-Type Proanthocyanidin Dimers from Zambian Cassia abbreviata and Their Trypanocidal Activities” (J Nat Prod, 2022).

Each structure is given as a SMILES string. In brackets after ≈: the same amount, converted by molar mass.

For orientation: IC50 means the midpoint of a concentration-inhibition curve.

Take `Cc1ccc(C(=O)Nc2ccc(S(=O)(=O)O)c3cc(S(=O)(=O)O)cc(S(=O)(=O)O)c23)cc1NC(=O)c1cccc(NC(=O)Nc2cccc(C(=O)Nc3cc(C(=O)Nc4ccc(S(=O)(=O)O)c5cc(S(=O)(=O)O)cc(S(=O)(=O)O)c45)ccc3C)c2)c1` [SURAMIN]: the IC50 in assay [1] came out at 0.094 mg/L (≈ 0.0725 µM); in the assay on Trypanosoma congolense [2] it was 10.2 mg/L (≈ 7.9 µM); in assay [3] it was 0.11 mg/L (≈ 0.0848 µM); in assay [4] it was 0.094 mg/L (≈ 0.0725 µM); in the assay on Trypanosoma evansi [5] it was 0.54 mg/L (≈ 0.416 µM); in assay [6], 0.092 mg/L (≈ 0.0709 µM).
On to `Oc1ccc([C@H]2Oc3cc(O)cc(O)c3C[C@@H]2O)cc1`, for which the IC50 was determined as 38.6 mg/L (≈ 141 µM) in assay [1]; 28.3 mg/L (≈ 103 µM) with Trypanosoma congolense [2]; 45.7 mg/L (≈ 167 µM) in [3]; 4.03 mg/L (≈ 14.7 µM) in assay [4]; 14.4 mg/L (≈ 52.6 µM) in the assay on Trypanosoma evansi [5]; 46.4 mg/L (≈ 169 µM) in [6]. Further, the Activity in assay [7] turned out to be 98.54%; in assay [8], 96.07%; in [9] it was 90.28%; in assay [10], 99.71%; with Trypanosoma evansi [11] it was 99.7%; in the assay with Trypanosoma congolense [12] it was 99.57%.
As for `N=C(N)c1ccc(OCCCCCOc2ccc(C(=N)N)cc2)cc1` [PENTAMIDINE], the IC50 in [1] stood at 0.014 mg/L (≈ 0.0411 µM); in the assay on Trypanosoma congolense [2], 0.11 mg/L (≈ 0.323 µM); in assay [3] it was 0.0099 mg/L (≈ 0.0291 µM); in assay [4], 0.0017 mg/L (≈ 0.00499 µM); in the assay on Trypanosoma evansi [5], 0.00033 mg/L (≈ 0.000969 µM); in [6], 0.0049 mg/L (≈ 0.0144 µM).
As to `NCCC[C@](N)(C(=O)O)C(F)F` [EFLORNITHINE, (S)-], the IC50 is 7.03 mg/L (≈ 38.6 µM) in assay [1]; 2.94 mg/L (≈ 16.1 µM) with Trypanosoma congolense [2]; 8.38 mg/L (≈ 46 µM) in [3]; 6.5 mg/L (≈ 35.7 µM) in assay [4]; 10.4 mg/L (≈ 57.2 µM) with Trypanosoma evansi [5]; 6.68 mg/L (≈ 36.7 µM) in [6].
With `N=C(N)c1ccc(/N=N/Nc2ccc(C(=N)N)cc2)cc1` [DIMINAZENE], the half-inhibitory concentration (IC50) in assay [1] is 0.02 mg/L (≈ 0.0711 µM); in the assay on Trypanosoma congolense [2], 0.065 mg/L (≈ 0.231 µM); in [3], 0.013 mg/L (≈ 0.0462 µM); in [4] it was 0.081 mg/L (≈ 0.288 µM); with Trypanosoma evansi [5], 0.0033 mg/L (≈ 0.0117 µM); in assay [6], 0.0066 mg/L (≈ 0.0235 µM).
Regarding `Oc1cc(O)c2c(c1)O[C@H](c1cc(O)c(O)c(O)c1)[C@H](O)C2` [EPIGALLOCATECHIN], the results for the IC50 (with Trypanosoma congolense [2]; in assay [4]; in the assay with Trypanosoma evansi [5]) were 2.38 mg/L (≈ 7.77 µM), 1.62 mg/L (≈ 5.29 µM) and 1.58 mg/L (≈ 5.16 µM), respectively. The Activity in [7] is 62.43%; in assay [8], 66.56%; in assay [9], 85.1%; in [10], 100.06%; in the assay with Trypanosoma evansi [11], 99.99%; in the assay on Trypanosoma congolense [12] it was 99.94%.
With `Oc1ccc([C@H]2Oc3cc(O)ccc3[C@H](c3c(O)cc(O)c4c3O[C@H](c3cc(O)c(O)c(O)c3)[C@H](O)C4)[C@@H]2O)cc1`, the IC50 with Trypanosoma congolense [2] was found to be 15.3 mg/L (≈ 27.3 µM); in assay [4], 3.91 mg/L (≈ 6.95 µM); in the assay with Trypanosoma evansi [5], 23.2 mg/L (≈ 41.2 µM). Moreover, the Activity in assay [7] is 0%; in assay [8] it was 13.65%; in assay [9], 26.1%; in [10], 99.9%; in the assay on Trypanosoma evansi [11], 99.69%; with Trypanosoma congolense [12], 99.67%.
